For data set [1], the target named is hERG potassium ion channel (Homo sapiens (Human), UniProt Q12809). Nature of the data set: Predictor hERG fluorescence polarization. The format is binding. As for the experimental part: Test Example 5: In Vitro Safety Test
The effect of the compound on hERG potassium ion channel was tested by Predictor™ hERG fluorescence polarization.

In another data set the target is PPARα (Homo sapiens (Human), UniProt Q07869). Kind of data set: Activation of transient transfected PPAR α in HEK293 cells (GAL4-hPPAR α luciferase assay). The following applies: HEK293 transfected with GAL4-hPPAR α, 24 h incubation. The format is cell-based. As to the method:
Test example 1: Experiment of the compounds on activation of transient transfected PPAR α in HEK293 cells
Plasmid: pcDNA3.1(+)-GAL4-hPPAR α, customized by Nanjing Kebai Biotechnology Co., Ltd.
(§1) Liposome: PGL4.35, customized by Nanjing Kebai Biotechnology Co., Ltd.
(§2) Cell: human embryonic kidney cells HEK293, purchased from ATCC.
(§3) Transfection reagent: Lipofectamine Reagent 3000 purchased from Invitrogen.
(§4) Assay kit: Bright Glo™ Luciferase Assay System purchased from Promega.
(§5) HEK293 cells were incubated in DMEM medium containing 10% of fetal bovine serum at 37° C. in the presence of 5% of CO2. 3×10^5/ml cells were plated in each well of the 6-well plate. When the cell convergence degree reached 50%-80%, 5 μg of liposome PGL4.35 and 5 μg of expression plasmid pcDNA3.1(+)-GAL4-hPPAR α were added to transfect the cells for 24 h and then the cells were collected. The transfected cells were plated in the 96-well plate and the compounds of the application in different concentrations were added, incubated for 24 h, and Bright Glo™ Luciferase Assay System reagent was added for luciferase assay.

The test system of data set [2] is MCD model of non-alcoholic steatohepatitis. Kind of data set: In vivo efficacy study in the MCD model of non-alcoholic steatohepatitis. Also on record: species or system C57 Mice. As to conditions: MCD diet mice. As to the method:
Test Example 6: In Vivo Efficacy Study of Compound in the MCD Model of Non-Alcoholic Steatohepatitis In this example, comparative test between compound GFT505 from WO2018133705A1 and compounds of the invention was conducted, so as to show the advantages of compounds of the invention. C57 Mice at 8-10 weeks of age (purchased from Vital River Laboratories) were body-weight matched and randomly divided into groups of normal, model, control and test. Mice in normal group were fed with standard chow for 9 weeks. Mice in model group, control group and test group were fed with MCD diet (Methionine-Choline Deficient Diet, Research Diets) for 9 weeks to induce NASH Model. During weeks 5-9 of the 9-week course of MCD diet, the control group and the test group were treated with GFT505 and TM4 of the invention, respectively, and the normal group and model group were treated with 0.5% MC. The dosage regimen was specified in table 5. [table] Animals were dissected after administration on day 35, livers were collected for H&E staining (hematoxylin-eosin staining) and sirius red staining. And then NAFLD activity score, including liver steatosis score, inflammation score and ballooning score, and liver fibrosis score were conducted.

The next data set deals with PPARδ (Homo sapiens (Human), UniProt Q03181). Nature of the data set: Activation of transient transfected PPAR δ in HEK293 cells (GAL4-hPPAR δ luciferase assay). The format is cell-based. As to conditions: HEK293 transfected with GAL4-hPPAR δ, 24 h incubation. As to the method:
Test Example 2: Experiment of the Compounds on Activation of Transient Transfected PPAR δ in HEK293 Cells
Plasmid: pcDNA3.1(+)-GAL4-hPPAR δ, customized by Nanjing Kebai Biotechnology Co., Ltd.
as §1, §2, §3, §4
as §5, with “δ” for “α”, “Then, the” for “The”, “reagent” for “reagent was added”, “assay was added.” for “assay.”

Data set [3] in a line: Cytotoxicity test on HepG2 cells (CellTiter Glo). The format is cell-based. The following applies: human, incubated for 3 days. As to the method:
(§6) Test Example 4: Cytotoxicity Test of Compound on HepG2 & Hek293 Cells
(§7) Cells: human hepatocyte HepG2, purchased from ATCC; Human embryonic kidney cells HEK293: purchased from ATCC;
(§8) Assay reagent: CellTiter Glo® Luminescent Cell Viability Assay, purchased from Promega.
(§9) HepG2 and HEK293 cells were incubated in DMEM/F12 medium containing 10% of fetal bovine serum respectively. A proper amount of cells were plated into a 96-well plate, the plate was placed in an incubator overnight, and the culture medium was removed, and replaced with a complete culture medium containing the compound of the application, and incubated for 3 days. On day 4, an assay reagent CellTiter Glo was added to each well, and the relative luminous unit (RLU) of each well was determined by chemiluminescence. CC50 values of the compound of the application to HepG2 and HEK293 cells were calculated by GraphPad software, and the results were shown in Table 3.

Data set [4] in a line: Cytotoxicity test on HEK293 cells (CellTiter Glo). It counts as cell-based. As to conditions: human, incubated for 3 days. As to the method:
as §6, §7, §8, §9

Where [5] appears, read: 1 mg/kg intragastric once every day for 35 days.
[6] abbreviates: 1 mg/kg, 35 days, result in words.

SMILES strings stand for the structures. Bounds are passed on as bounds.

hERG potassium ion channel, sequence (Q12809 whole entry): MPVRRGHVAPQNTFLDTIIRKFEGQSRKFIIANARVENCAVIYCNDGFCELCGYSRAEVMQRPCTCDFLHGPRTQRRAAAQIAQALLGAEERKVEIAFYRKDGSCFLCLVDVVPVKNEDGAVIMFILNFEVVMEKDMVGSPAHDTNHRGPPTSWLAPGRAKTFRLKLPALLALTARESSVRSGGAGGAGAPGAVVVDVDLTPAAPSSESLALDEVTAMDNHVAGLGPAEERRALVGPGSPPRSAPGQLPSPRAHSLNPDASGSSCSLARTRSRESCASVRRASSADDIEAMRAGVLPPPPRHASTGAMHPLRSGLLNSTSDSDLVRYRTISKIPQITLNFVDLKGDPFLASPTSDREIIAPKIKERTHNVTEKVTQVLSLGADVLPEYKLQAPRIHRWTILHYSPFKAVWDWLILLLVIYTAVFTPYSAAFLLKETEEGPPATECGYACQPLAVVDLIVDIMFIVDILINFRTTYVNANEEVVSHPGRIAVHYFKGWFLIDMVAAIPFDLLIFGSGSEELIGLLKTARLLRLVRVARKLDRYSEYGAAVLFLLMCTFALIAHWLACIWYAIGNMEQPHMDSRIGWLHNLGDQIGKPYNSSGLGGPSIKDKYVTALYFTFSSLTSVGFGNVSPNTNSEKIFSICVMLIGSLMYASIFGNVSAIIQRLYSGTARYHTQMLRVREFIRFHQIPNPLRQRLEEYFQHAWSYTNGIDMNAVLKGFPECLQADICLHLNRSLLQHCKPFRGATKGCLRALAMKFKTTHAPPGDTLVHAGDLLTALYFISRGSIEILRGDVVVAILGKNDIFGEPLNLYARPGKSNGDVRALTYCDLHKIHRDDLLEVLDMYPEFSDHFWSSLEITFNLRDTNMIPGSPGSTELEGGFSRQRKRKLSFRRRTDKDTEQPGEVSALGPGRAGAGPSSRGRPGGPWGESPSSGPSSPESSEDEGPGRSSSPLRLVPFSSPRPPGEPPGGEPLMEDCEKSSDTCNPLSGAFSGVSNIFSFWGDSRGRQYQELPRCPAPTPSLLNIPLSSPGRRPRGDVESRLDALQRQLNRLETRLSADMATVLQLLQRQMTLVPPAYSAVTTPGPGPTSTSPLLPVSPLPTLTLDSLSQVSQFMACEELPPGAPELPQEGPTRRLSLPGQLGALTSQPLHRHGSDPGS
PPARα, sequence (Q07869 whole entry, looked up, the tested form may be a part): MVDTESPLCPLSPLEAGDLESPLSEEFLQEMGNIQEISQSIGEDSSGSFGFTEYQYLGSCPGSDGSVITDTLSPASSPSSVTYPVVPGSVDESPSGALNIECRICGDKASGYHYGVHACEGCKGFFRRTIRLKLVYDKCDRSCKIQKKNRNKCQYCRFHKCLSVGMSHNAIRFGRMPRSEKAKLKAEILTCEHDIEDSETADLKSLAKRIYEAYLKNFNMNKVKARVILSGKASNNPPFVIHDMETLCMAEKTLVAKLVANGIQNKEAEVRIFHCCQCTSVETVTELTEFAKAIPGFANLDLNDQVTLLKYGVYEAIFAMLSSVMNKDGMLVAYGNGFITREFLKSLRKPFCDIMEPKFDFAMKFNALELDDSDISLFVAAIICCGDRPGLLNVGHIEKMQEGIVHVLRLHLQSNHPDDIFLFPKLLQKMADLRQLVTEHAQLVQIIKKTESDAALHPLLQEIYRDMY
PPARδ, sequence (Q03181 whole entry, looked up, the tested form may be a part): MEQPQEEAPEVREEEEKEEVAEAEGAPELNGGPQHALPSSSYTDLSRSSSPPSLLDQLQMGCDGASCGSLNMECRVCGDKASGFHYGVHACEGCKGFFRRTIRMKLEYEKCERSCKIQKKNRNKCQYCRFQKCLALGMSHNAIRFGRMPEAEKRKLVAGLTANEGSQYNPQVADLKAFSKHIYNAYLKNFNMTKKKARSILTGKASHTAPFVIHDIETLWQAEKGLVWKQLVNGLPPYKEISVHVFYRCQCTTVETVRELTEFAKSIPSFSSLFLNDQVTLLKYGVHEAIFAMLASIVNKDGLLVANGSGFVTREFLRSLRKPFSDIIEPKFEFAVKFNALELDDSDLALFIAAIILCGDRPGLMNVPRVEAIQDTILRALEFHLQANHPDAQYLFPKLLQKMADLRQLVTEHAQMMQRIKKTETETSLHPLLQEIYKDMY

What is called IC50 is the point on the concentration scale where inhibition reaches its midpoint. With `Cc1cc(/C=C/C(=O)c2cc3ccccc3nc2N(C)C)cc(C)c1OC(C)(C)C(=O)O` [Example 9, (E)-2-(4-(3-(2-dimethylaminoquinolin-3-yl)-3-oxo-1-propen-1-yl)-2,6-dimethylphenoxy)-2-methylpropionic acid], in data set [1], the IC50 was more than 10000 nM.

As a reminder, the EC50 is the concentration needed to bring the measured effect to its halfway point. High values mean weaker potency, low ones greater potency. Regarding `CSc1nc2ccccc2cc1C(=O)/C=C/c1cc(C)c(OC(C)(C)C(=O)O)c(C)c1` [Example 17, (E)-2-(4-(3-(2-methylthioquinolin-3-yl)-3-oxo-1-propen-1-yl)-2,6-dimethylphenoxy)-2-methylpropionic acid], the concentration for a half-maximal effect (EC50) at PPARα came to 123 nM. In data set [1], the half-maximal inhibitory concentration (IC50) is more than 10000 nM.

Consider `CSc1ccc(C(=O)/C=C/c2cc(C)c(OC(C)(C)C(=O)O)c(C)c2)cc1` [GFT505, reference compound], for which, in data set [2] (setting [5]), the “Liver fibrosis score (Mean ± SD)” value is on record as 1.22 ± 0.44 and the “NAFLD activity score (Mean ± SD)” value is 3.33 ± 0.87. Besides, in data set [2] (setting [6]), the “Reduction of NAFLD activity score compared with model group” value is recorded as “not statistically significant” and the “Reduction of liver fibrosis score compared with model group” value was “not statistically significant”.

Turning to `COc1ccc2nc(OC)c(C(=O)/C=C/c3cc(C)c(OC(C)(C)C(=O)O)c(C)c3)cc2c1` [Example 21, (E)-2-(4-(3-(2,6-dimethoxy-quinolin-3-yl)-3-oxo-1-propen-1-yl)-2,6-dimethylphenoxy)-2-methylpropionic acid], the values for the EC50 on PPARα and on PPARδ were 5.4 nM and 675 nM, respectively. Moreover, in data set [1], the IC50 is more than 10000 nM.

As to `COc1ccc2cc(C(=O)/C=C/c3cc(C)c(OC(C)(C)C(=O)O)c(C)c3)c(OC)nc2c1` [Example 19, (E)-2-(4-(3-(2,7-dimethoxy-quinolin-3-yl)-3-oxo-1-propen-1-yl)-2,6-dimethylphenoxy)-2-methylpropionic acid], the results for the EC50 on PPARα and at PPARδ were 1.33 nM and 796 nM, respectively. Besides, the IC50 in data set [1] was more than 10000 nM.

The CC50 is the concentration giving 50% cytotoxicity. A low value points to greater toxicity to the cells. Consider `Cc1cc(/C=C/C(=O)c2cc3ccccc3nc2Cl)cc(C)c1OC(C)(C)C(=O)O` [Example 4, (E)-2-(4-(3-(2-chloroquinolin-3-yl)-3-oxo-1-propen-1-yl)-2,6-dimethylphenoxy)-2-methyl propionic acid], for which the EC50 is 278 nM at PPARα and 3440 nM at PPARδ. Also, the values for the CC50 at 3 days in data set [3] and in data set [4] were 11300 nM and 13600 nM, respectively. Moreover, the IC50 in data set [1] was more than 10000 nM.

As to `Cc1cc(/C=C/C(=O)c2cc3ccccc3s2)cc(C)c1OC(C)(C)C(=O)O` [Example 2, (E)-2-(4-(3-(benzo [b]thien-2-yl)-3-oxo-1-propen-1-yl)-2,6-dimethylphenoxy)-2-methylpropionic acid], the EC50 at PPARα worked out at 1210 nM; at PPARδ, 6130 nM. In addition, the 50% cytotoxic concentration (CC50) at 3 days is approximately 7270 nM in data set [3] and approximately 8140 nM in data set [4]. The IC50 in data set [1] was 8240 nM.

For the compound `Cc1cc(/C=C/C(=O)c2cc3ccccc3nc2N2CCCC2)cc(C)c1OC(C)(C)C(=O)O` [Example 10, (E)-2-(4-(3-(2-(1-pyrrolidinyl)quinolin-3-yl)-3-oxo-1-propen-1-yl)-2,6-dimethylphenoxy)-2-methylpropionic acid], the 50% effective concentration (EC50) is 77 nM on PPARα and 2510 nM at PPARδ. In data set [1], the IC50 is more than 10000 nM.

As for `COCCOc1nc2ccccc2cc1C(=O)/C=C/c1cc(C)c(OC(C)(C)C(=O)O)c(C)c1` [Example 6, (E)-2-(4-(3-(2-(2-methoxyethoxy)quinolin-3-yl)-3-oxo-1-propen-1-yl)-2,6-dimethylphenoxy)-2-methylpropionic acid], the EC50 at PPARα came out at 52.8 nM; on PPARδ, 374 nM. Moreover, the CC50 at 3 days in data set [3] and in data set [4] was more than 10000 nM throughout. Also, the IC50 in data set [1] was more than 10000 nM.

As to `Cc1cc(/C=C/C(=O)c2cnc3ccccc3c2)cc(C)c1OC(C)(C)C(=O)O` [Example 3, (E)-2-(4-(3-(quinolin-3-yl)-3-oxo-1-propen-1-yl)-2,6-dimethylphenoxy)-2-methylpropionic acid], the EC50 at PPARα was found to be 1930 nM. Also, the IC50 in data set [1] was more than 10000 nM.

In the case of `Cc1cc(/C=C/C(=O)c2cc3ccccc3nc2N2CCOCC2)cc(C)c1OC(C)(C)C(=O)O` [Example 11, (E)-2-(4-(3-(2-(morpholin-4-yl)quinolin-3-yl)-3-oxo-1-propen-1-yl)-2,6-dimethylphenoxy)-2-methylpropionic acid], the EC50 on PPARα is 585 nM; on PPARδ, 4430 nM.

Compound `Cc1cc(/C=C/C(=O)c2cc3ccccc3nc2C(F)(F)F)cc(C)c1OC(C)(C)C(=O)O` [Example 8, (E)-2-(4-(3-(2-trifluoromethylquinolin-3-yl)-3-oxo-1-propen-1-yl)-2,6-dimethylphenoxy)-2-methylpropionic acid] came in with a half-maximal effective concentration (EC50) at PPARα of 692 nM. Further, the CC50 at 3 days in data set [3] and in data set [4] was more than 10000 nM each time. Further, the IC50 in data set [1] was more than 10000 nM.

In the case of `COc1ccc2cc(C(=O)/C=C/c3cc(C)c(OC(C)(C)C(=O)O)c(C)c3)c(Cl)nc2c1` [Example 18, (E)-2-(4-(3-(2-chloro-7-methoxy-quinolin-3-yl)-3-oxo-1-propen-1-yl)-2,6-dimethylphenoxy)-2-methylpropionic acid], the figures for the EC50 on PPARα and at PPARδ were 8.62 nM and 810 nM, respectively. The IC50 in data set [1] is more than 10000 nM.

`COc1ccc2nc(Cl)c(C(=O)/C=C/c3cc(C)c(OC(C)(C)C(=O)O)c(C)c3)cc2c1` [Example 20, (E)-2-(4-(3-(2-chloro-6-methoxy-quinolin-3-yl)-3-oxo-1-propen-1-yl)-2,6-dimethylphenoxy)-2-methylpropionic acid]: a half-maximal response at PPARα (EC50) required 460 nM. In other words, the sub-micromolar range.

With `Cc1cc(/C=C/C(=O)c2cc3ccccc3nc2C)cc(C)c1OC(C)(C)C(=O)O` [Example 7, (E)-2-(4-(3-(2-methylquinolin-3-yl)-3-oxo-1-propen-1-yl)-2,6-dimethylphenoxy)-2-methylpropionic acid], at PPARα, the EC50 came out at 752 nM. Besides, the half-maximal cytotoxic concentration (CC50) at 3 days in data set [3] and in data set [4] was more than 10000 nM each time.

(Values after patent US11261170B2, “Aromatic compound, pharmaceutical composition and use thereof” (Sichuan Kelun-Biotech Biopharmaceutical Co., Ltd., priority 2017, dated 2022).)
